In patent US20260365655A1, “NEW USE OF JANUS KINASE (JAK)-DEGRADING AGENT BASED ON PROTEOLYSIS TARGETING CHIMERA (PROTAC)” (SHANGHAI SKIN DISEASE HOSPITAL, priority 2022, published 2026):
Values joined by “and” are separate entries in the source; they are usually repeats but may differ in a detail not shown here. Equal entries are not always repeated.

Assays:
Format in all cases: in vivo, BALB/c mice
[1] = tested on: mouse ear eczema model (atopic dermatitis); experiment: Mouse ear eczema model (calcipotriol-induced): SCORAD of skin damage and overall therapeutic effect; conditions: 0.15% cream for external use; result is for model group relative to the treated groups
Description: (§1) (1) Preparation method of a JAK-PROTAC cream: the same as in Example 1.
(§2) (2) Positive therapeutic drug: a 0.050% dexamethasone acetate cream (manufacturer: Shanghai Skin Disease Hospital).
(§3) (3) Blank matrix: a matrix component produced after the active ingredient JAK-PROTAC was removed from the cream.
(§4) (4) Molding agent: solution of calcipotriol in ethanol (manufacturer: MACKLIN).
(§5) (1) The mice were randomly divided into a blank control group (6 mice) (Control), a model group (6 mice) (Model), a positive drug group (6 mice) (Positive), a Compound 1-treating group (0.15% JAK-PROTAC cream 1 for external use) (6 mice) (Treat 1), and a Compound 2-treating group (0.15% JAK-PROTAC cream 2 for external use) (6 mice) (Treat 2).
(2) Molding was conducted in the following manner: […]
(1) The photographing was conducted every day. The severity of skin damage in an ear application region was evaluated through SCORAD for mice. […] Each symptom was scored as 0 to 3 depending on the severity of a skin damage: asymptomatic: 0, mild: 1, moderate: 2, and severe: 3. […]

[2] = tested on: mouse ear eczema model (ear thickness); experiment: Mouse ear eczema model: ear thickness; conditions: for Ear thickness, mean value: group mean; for Ear thickness: individual mice, two ears; for Ear thickness difference among Compound 1-, Compound 2-treating and positive drug groups / Ear thickness of model group versus treated groups: after the modeling; for Ear thickness of model group versus treated groups: result is for model group relative to the treated groups
Description: as §1, §2, §3, §4, §5
(§6) (2) Molding was conducted in the following manner:
(§7) A. On day 0 to day 7 of the modeling: At 9 a.m., the blank control group was administered with the cream matrix, the model group was administered with the molding agent, the positive group was administered with the molding agent, the Compound 1-treating group was administered with the molding agent, and the Compound 2-treating group was administered with the molding agent. At 5 p.m., the blank control group was not treated, the model group was administered with the cream matrix, the positive group was administered with the dexamethasone acetate cream, the Compound 1-treating group was administered with the JAK-PROTAC cream 1, and the Compound 2-treating group was administered with the JAK-PROTAC cream 2.
as §7, with “B.” for “A.”, “8” for “0”, “10” for “7”, “modeling, at” for “modeling: At”, “not treated,” for “administered with the molding agent,”, “not treated.” for “administered with the molding agent.”
(§8) C. On day 11 of the modeling: At 9 a.m., the blank control group was administered with the cream matrix, the model group was not treated, the positive group was not treated, the Compound 1-treating group was not treated, and the Compound 2-treating group was not treated. At 1 p.m., the mice were sacrificed through cervical dislocation, and the spleen and two ears of each mouse were collected.
(§9) (2) A body weight and thicknesses of two ears of each mouse were recorded daily.
(§10) The data of the present disclosure was processed with the Excel and GraphPad software. The experimental data was tested by one-way ANOVA. The post-hoc multiple comparison was conducted with the least significant difference (LSD). P<0.05 indicated a significant difference.

[3] = tested on: mouse ear eczema model (spleen); experiment: Mouse ear eczema model: body weight, spleen weight and spleen index; conditions: for Ranking in terms of spleen weight and spleen index: AD model, positive drug, Compound 1 and Compound 2 groups; for Therapeutic effect for AD / Therapeutic effect versus the positive drug: atopic dermatitis mouse models; for Therapeutic effect versus the positive drug: positive drug = 0.050% dexamethasone acetate cream; for Spleen weights and spleen indexes versus blank control group: compared with the blank control group; for Spleen weight, mean value: group mean; for Spleen weight, mean value / Spleen weight: day 11, wet weight; for Spleen weight: individual mice
Description: as §1, §2, §3, §4, §5, §6, §7
as §7, with “B.” for “A.”, “8” for “0”, “10” for “7”, “modeling, at” for “modeling: At”, “not treated,” for “administered with the molding agent,”, “not treated.” for “administered with the molding agent.”
as §8
(3) Spleen index testing:
After the mice were sacrificed, a spleen tissue was collected, dried with a filter paper to remove blood stains on a surface, and weighed for a wet weight. A spleen index was calculated as follows: spleen index=10,000×spleen weight (g)/body weight (g).
as §9
(3) After the experiment was completed, a spleen index of each mouse was calculated.
as §10

[4] = tested on: serum thymic stromal lymphopoietin (TSLP); experiment: Mouse ear eczema model: serum TSLP by enzyme-linked immunosorbent assay; conditions: for Serum TSLP content versus blank group: compared with the blank group; for Serum TSLP content versus model group: compared with the model group; for Reduction level of serum TSLP content versus positive group: compared with the positive group (dexamethasone acetate cream)
Description: as §1, §2, §3, §4, §5, §6, §7
as §7, with “B.” for “A.”, “8” for “0”, “10” for “7”, “modeling, at” for “modeling: At”, “not treated,” for “administered with the molding agent,”, “not treated.” for “administered with the molding agent.”
as §8
(4) The TSLP content in serum was detected by enzyme-linked immunosorbent assay.
as §10

[5] = Day0, cream for external use (JAK-PROTAC 0.15%, dexamethasone acetate 0.050%)
[6] = Day0 of modeling, cream for external use (JAK-PROTAC 0.15%, dexamethasone acetate 0.050%)

| SMILES | Erythema, scale, and infiltration scores and total scores (SCORAD) of model group versus treated groups [1] | Ear thickness, mean value [2, 5] [mm] | Ear thickness [2, 6] | Ear thickness, mean value ([2]; Day 1) [mm] | Ear thickness ([2]; Day 1) | Ear thickness, mean value ([2]; Day2) [mm] | Ear thickness ([2]; Day2) | Ear thickness, mean value ([2]; Day3) [mm] | Ear thickness ([2]; Day3) | Ear thickness, mean value ([2]; Day4) [mm] | Ear thickness ([2]; Day4) | Ear thickness, mean value ([2]; Day5) [mm] | Ear thickness ([2]; Day5) | Ear thickness, mean value ([2]; Day6) [mm] | Ear thickness ([2]; Day6) | Ear thickness, mean value ([2]; Day7) [mm] | Ear thickness ([2]; Day7) | Ear thickness, mean value ([2]; Day8) [mm] | Ear thickness ([2]; Day8) | Ear thickness difference among Compound 1-, Compound 2-treating and positive drug groups [2] | also measured |
| --- | --- | --- | --- | --- | --- | --- | --- | --- | --- | --- | --- | --- | --- | --- | --- | --- | --- | --- | --- | --- | --- |
| N#CC[C@H](C1CCCC1)n1cc(-c2nc(Nc3ccc(C(=O)NCCCCNc4cccc5c4C(=O)N(C4CCC(=O)NC4=O)C5=O)cc3)nc3[nH]ccc23)cn1 (stereo partly drawn) [Compound 1] | significantly higher than the respective scores in the Compound 1- and Compound 2-treating groups (P<0.05) | 0.24 | 0.23 mm (2×) and 0.24 mm (3×) and 0.26 mm and 0.25 mm (2×) | 0.27 | 0.26 mm (5×) and 0.29 mm and 0.28 mm and 0.27 mm | 0.28 | 0.30 mm (3×) and 0.27 mm (3×) and 0.28 mm and 0.24 mm | 0.28 | 0.30 mm and 0.31 mm and 0.26 mm and 0.28 mm and 0.27 mm (2×) and 0.29 mm and 0.24 mm | 0.28 | 0.27 mm (2×) and 0.33 mm and 0.31 mm and 0.30 mm and 0.25 mm (2×) and 0.28 mm | 0.29 | 0.32 mm (3×) and 0.29 mm and 0.28 mm (2×) and 0.30 mm and 0.24 mm | 0.32 | 0.34 mm and 0.35 mm (2×) and 0.36 mm and 0.31 mm and 0.30 mm and 0.25 mm and 0.33 mm | 0.33 | 0.33 mm (2×) and 0.32 mm and 0.37 mm and 0.35 mm and 0.36 mm and 0.26 mm and 0.34 mm | 0.32 | 0.30 mm and 0.33 mm and 0.32 mm (2×) and 0.35 mm and 0.37 mm and 0.24 mm and 0.34 mm | no significant difference among the Compound 1- and Compound 2-treating groups and the positive drug group (P>0.05) | Ear thickness of model group versus treated groups [2]: significantly larger than ear thicknesses of the Compound 1- and Compound 2-treating groups, the positive drug group, and the blank control group (P<0.05); Ranking in terms of spleen weight and spleen index [3]: the Compound 1-treating group>the Compound 2-treating group>the positive drug group>the AD model group (P<0.05); Therapeutic effect for AD [3]: had a therapeutic effect for AD, could improve the inflammatory responses in atopic dermatitis mouse models; Therapeutic effect versus the positive drug [3]: exhibited a better therapeutic effect than the positive drug; Spleen weights and spleen indexes versus blank control group [3]: significantly reduced (P<0.05); Spleen weight, mean value [3]: 0.0862 g; Spleen weight [3]: 0.0798 g and 0.0934 g and 0.0855 g; Serum TSLP content versus blank group [4]: increased compared with the blank group (P<0.01); Serum TSLP content versus model group [4]: significantly reduced compared with the model group (P<0.01); Reduction level of serum TSLP content versus positive group [4]: greater than a reduction level of a TSLP content in the positive group (P<0.01) |
| CCS(=O)(=O)N1CC(CC#N)(n2cc(-c3nc(Nc4ccc(C(=O)NCCCCNc5cccc6c5C(=O)N(C5CCC(=O)NC5=O)C6=O)cc4)nc4[nH]ccc34)cn2)C1 (stereo not drawn) [Compound 2] | significantly higher than the respective scores in the Compound 1- and Compound 2-treating groups (P<0.05) | 0.22 | 0.22 mm (3×) and 0.24 mm (2×) and 0.21 mm (3×) | 0.26 | 0.28 mm and 0.29 mm and 0.24 mm (2×) and 0.25 mm (3×) and 0.26 mm | 0.25 | 0.23 mm (3×) and 0.29 mm and 0.21 mm and 0.26 mm (2×) and 0.25 mm | 0.26 | 0.26 mm (5×) and 0.27 mm and 0.24 mm and 0.25 mm | 0.27 | 0.29 mm and 0.27 mm and 0.26 mm (2×) and 0.28 mm (2×) and 0.25 mm and 0.24 mm | 0.29 | 0.29 mm (3×) and 0.30 mm (2×) and 0.28 mm and 0.31 mm and 0.26 mm | 0.32 | 0.32 mm (2×) and 0.33 mm (2×) and 0.31 mm (2×) and 0.30 mm (2×) | 0.35 | 0.34 mm (2×) and 0.36 mm (5×) and 0.35 mm | 0.35 | 0.34 mm (4×) and 0.36 mm (2×) and 0.39 mm and 0.33 mm | no significant difference among the Compound 1- and Compound 2-treating groups and the positive drug group (P>0.05) | Ear thickness of model group versus treated groups [2]: significantly larger than ear thicknesses of the Compound 1- and Compound 2-treating groups, the positive drug group, and the blank control group (P<0.05); Ranking in terms of spleen weight and spleen index [3]: the Compound 1-treating group>the Compound 2-treating group>the positive drug group>the AD model group (P<0.05); Therapeutic effect for AD [3]: had a therapeutic effect for AD, could improve the inflammatory responses in atopic dermatitis mouse models; Therapeutic effect versus the positive drug [3]: exhibited a better therapeutic effect than the positive drug; Spleen weights and spleen indexes versus blank control group [3]: significantly reduced (P<0.05); Spleen weight, mean value [3]: 0.0732 g; Spleen weight [3]: 0.0749 g and 0.0739 g and 0.0708 g; Serum TSLP content versus blank group [4]: increased compared with the blank group (P<0.01); Serum TSLP content versus model group [4]: significantly reduced compared with the model group (P<0.01); Reduction level of serum TSLP content versus positive group [4]: greater than a reduction level of a TSLP content in the positive group (P<0.01) |
